Test results reported in ChEMBL document CHEMBL1201862, “PubChem BioAssay data set” (2004).
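Five compound concentrations were applied to cells in 96-well plates for 48 hours; endpoints were derived by simple linear interpolation of the resulting dose-response curve. Abbreviation: GI50, concentration required for 50% inhibition of growth.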 Active and inactive are the calls of the source. Rule as the data show it: active = GI50 up to about 1.1 µM and inactive = higher.

Key:
Assay in all cases: NCI anticancer screen, dose series, 48 h
M14 = system: M14
DU-145 = system: DU-145
HCC 2998 = system: HCC 2998
SNB-75 = system: SNB-75
BT-549 = system: BT-549
NCI-H23 = system: NCI-H23
MDA-MB-435 = system: MDA-MB-435
IGROV-1 = system: IGROV-1
UO-31 = system: UO-31
786-0 = system: 786-0
NCI-H226 = system: NCI-H226
OVCAR-3 = system: OVCAR-3
SF-295 = system: SF-295
HOP-92 = system: HOP-92
COLO 205 = system: COLO 205
SNB-19 = system: SNB-19
LOX IMVI = system: LOX IMVI
SK-MEL-5 = system: SK-MEL-5
A498 = system: A498
SR = system: SR

SMILES	GI50 (M14)	GI50 (DU-145)	GI50 (HCC 2998)	GI50 (SNB-75)	GI50 (BT-549)	GI50 (NCI-H23)	GI50 (MDA-MB-435)	GI50 (IGROV-1)	GI50 (UO-31)	GI50 (786-0)	GI50 (NCI-H226)	GI50 (OVCAR-3)	GI50 (SF-295)	GI50 (HOP-92)	GI50 (COLO 205)	GI50 (SNB-19)	GI50 (LOX IMVI)	GI50 (SK-MEL-5)	GI50 (A498)	GI50 (SR)
O=c1c2ccccc2nc(N/N=C/c2ccccc2O)n1-c1ccccc1	4.52 µM (inactive)	5 µM (inactive)	5.27 µM (inactive)	11 µM (inactive)	41.5 µM (inactive)	6.21 µM (inactive)	4.71 µM (inactive)	5.6 µM (inactive)	2.54 µM (inactive)	1.53 µM (inactive)	5.41 µM (inactive)	3.49 µM (inactive)	6.4 µM (inactive)	13 µM (inactive)	3.99 µM (inactive)	56.5 µM (inactive)	4.04 µM (inactive)	4.56 µM (inactive)	> 100 µM (inactive)	
Nc1ncnc2c1nc(O)n2-c1ccccc1	> 100 µM (inactive)		> 100 µM (inactive)		> 100 µM (inactive)	> 100 µM (inactive)	> 100 µM (inactive)	> 100 µM (inactive)	57.7 µM (inactive)	> 100 µM (inactive)		> 100 µM (inactive)	> 100 µM (inactive)	96.8 µM (inactive)	> 100 µM (inactive)	> 100 µM (inactive)	> 100 µM (inactive)	> 100 µM (inactive)	> 100 µM (inactive)	> 100 µM (inactive)
CC1(C)CC(=O)C2=C(C1)NC1=C(C2)C(=O)CC(C)(C)C1	> 100 µM (inactive)	> 100 µM (inactive)	> 100 µM (inactive)	> 100 µM (inactive)	> 100 µM (inactive)	> 100 µM (inactive)	> 100 µM (inactive)	> 100 µM (inactive)	> 100 µM (inactive)	> 100 µM (inactive)	> 100 µM (inactive)	> 100 µM (inactive)	> 100 µM (inactive)		> 100 µM (inactive)	> 100 µM (inactive)	> 100 µM (inactive)	> 100 µM (inactive)	> 100 µM (inactive)	> 100 µM (inactive)
COc1cccc(C23CCCC(C2)N(C)CC3OC(=O)c2ccccc2)c1OC (stereo unspecified)	15.9 µM (inactive)	36 µM (inactive)	22.9 µM (inactive)		14.5 µM (inactive)	10.7 µM (inactive)	18 µM (inactive)	15.6 µM (inactive)	> 100 µM (inactive)	32.7 µM (inactive)		24.8 µM (inactive)	19.4 µM (inactive)		14.1 µM (inactive)	35.6 µM (inactive)	20.1 µM (inactive)	14 µM (inactive)	34.7 µM (inactive)	16.2 µM (inactive)
CC(=O)NN/C=N/C(C#N)=C(\N)C#N	> 100 µM (inactive)	> 100 µM (inactive)	> 100 µM (inactive)	> 100 µM (inactive)	> 100 µM (inactive)	> 100 µM (inactive)	> 100 µM (inactive)	> 100 µM (inactive)	> 100 µM (inactive)	> 100 µM (inactive)	> 100 µM (inactive)	> 100 µM (inactive)	> 100 µM (inactive)		> 100 µM (inactive)	> 100 µM (inactive)	> 100 µM (inactive)	> 100 µM (inactive)	> 100 µM (inactive)	> 100 µM (inactive)
O=C(OCC(Cl)(Cl)Cl)N1CC[C@@H](C2CCCCC2)C1	34.8 µM (inactive)	35.6 µM (inactive)	18.6 µM (inactive)	21.7 µM (inactive)	38.2 µM (inactive)	20.2 µM (inactive)	< 0.01 µM (active)	75.5 µM (inactive)	20.7 µM (inactive)	20.6 µM (inactive)		18.1 µM (inactive)	19 µM (inactive)		23.6 µM (inactive)	19.7 µM (inactive)	40.6 µM (inactive)	18.1 µM (inactive)		32.2 µM (inactive)
c1ccc(/N=C(\N2CCCC2)N(CCN2CCCC2)c2ccccc2)cc1	8.34 µM (inactive)	> 10 µM (inactive)		14.4 µM (inactive)	15.6 µM (inactive)	11.1 µM (inactive)	7.67 µM (inactive)	24.9 µM (inactive)	14.8 µM (inactive)	43.2 µM (inactive)	23.7 µM (inactive)	20 µM (inactive)	6.32 µM (inactive)	22.6 µM (inactive)	7.33 µM (inactive)	> 100 µM (inactive)	2.86 µM (inactive)	12.2 µM (inactive)		13.2 µM (inactive)
